From US5011838A, “Pharmacologically active 2-substituted 3-(2-ethoxyethyl) imidazo[4,5-b]pyridines and pharmaceutical compositions containing them” (Dompe Farmaceutici S.p.A., priority 1989, dated 1991)

How the values were obtained:
[1] = Evaluation of the lethal dose50 (LD50), acute toxicity; conditions: in vivo, ip; mouse; 14 days observation
Experimental: Swiss Nos (Nossan, Correzzana, Milano) mice, weighing 18 to 20 g each, on an empty stomach for 18 hours with water "ad libitum" and kept in cages with grid floor, were used. The animals, divided into groups of 10 animals each, (5M+5F) were treated intraperitoneally (10 ml/kg) with the compounds under examination dissolved in water or suspended in 0.5% carboxymethylcellulose. The animals were kept in the cages and the mortality occurred within the following 6 hours was noted down. At the expiring of the 6 hours the animals were allowed to eat up to the end of the experimentation which lasted 14 days. During this period all the toxic symptoms and the mortality occuring were noted.
The animals which died during the test period and those which were sacrificed at the end of the same, underwent autopsy for a macroscopic examination of their main organs. The experimental data were statistically compared with the X^2 method and LD50 was extrapolated by the `probit` method.

[2] = system: mortality induced by compound 48/80; assay: Mortality inhibition by compound 48/80; type: in vivo, Sprague Dawley Nos male rats; conditions: ip, half an hour before 2 mg/kg i.v. compound 48/80; rat; 4 hours observation
Experimental: For evaluating the protection to the mortality induced by compound 48/80 administration the method described by C. J. E. Niemegeers et al. (Arch. Int. Pharmacodyn, 234,164,1978) was followed.
Sprague Dawley Nos male rats (Nossan, Correzzana, Milano) weighing 140 to 150 g, divided into groups of 10 animals each, on an empty stomach for 24 hours with water "ad libitum", were kept in cages with a grid floor, and treated intravenously with 2 mg/kg of compound 48/80 (1 ml/rat).
The animals were kept under observation for 4 hours taking note of their mortality. The results were expressed as the number of animals dead with respect to the number of treated animals. Compounds under examination or the carrier were administered half an hour before administration of compound 48/80 by intraperitoneal route, dissolved in H2 O (5 ml/kg). The experimental data were submitted to the variance analysis and to subsequent multiple comparisons according to Dunnet (D. J. Finney, in "Statistical Methods in Biological assay", Ed. L. Griffin and Co. Ltd., pag. 152,1957, Edition Ames Iowa, 1971).

[3] = system: mortality induced by histamine; assay: Effect on the mortality induced by histamine; type: in vivo, male albino guinea pigs (Dunkin-Hartley); conditions: Cavia porcellus, po, 1 h; p.o., 60 min before 1.25 mg/kg i.v. histamine dihydrochloride; guinea pig; read-out: Mortality induced by hystamine ED50 p.o.
Experimental: The method described by Romer D. et al. (Med. Welt. 17,791, 1966) was followed and the tests were carried out on male albino guinea pigs (Dunkin-Hartley), weighing 350 to 450 g which were kept in cages with a grid floor, on an empty stomach for 24 hours with water ad libitum. The compounds under examination have been orally administered to the animals, dissolved in 0.5% carboxymethylcellulose, 60 minutes before intravenous administration of 1.25 mg/kg of histamine dihydrochloride in saline solution. In the control animals, treated with carboxymethylcellulose, the intravenous administration of histamine dihydrochloride induced a 100% mortality.
It has been evaluated ED50, which corresponds to the amount of the compound able to inhibit to 50% the mortality induced by histamine: estimation of ED50 has been made applying the `probit` method (Finney D. J. "Statistical method in biological assay", pg 512,1957).

For `CCOCCn1c(CCCN(C)C)nc2cccnc21` [Example 1, 3-(2-Ethoxyethyl)-2-(3-dimethylaminopropyl)-3H-imidazo [4,5-b] pyridine], the LD50 at 336 h [1] was over 100 mg/kg, the ED50 [2] was 0.5 mg/kg and the ED50 [3] was 0.03 mg/kg.
Compound `CCOCCn1c(CCN(C)C)nc2cccnc21` [Example 2, 3-(2-Ethoxyethyl)-2-(2-dimethylaminoethyl)-3 H-imidazo [4,5-b] pyridine] has an LD50 at 336 h [1] of over 100 mg/kg, an ED50 [2] of 0.3 mg/kg and an ED50 [3] of 0.025 mg/kg.
For `CCOCCn1c(CCCN2CCOCC2)nc2cccnc21.O=C(O)/C=C/C(=O)O.O=C(O)/C=C/C(=O)O` [Example 9, 3-(2-Ethoxyethyl)-2-[3-(morpholin-4-yl)propyl]-3H-imidazo [4,5-b] pyridine difumarate], the LD50 at 336 h [1] was over 100 mg/kg, the ED50 [2] was 0.5 mg/kg and the ED50 [3] was 0.003 mg/kg.
Compound `CC(C)(C)c1ccc(C(O)CCCN2CCC(C(O)(c3ccccc3)c3ccccc3)CC2)cc1` (stereo not drawn) [Terfenadine, reference compound] has an LD50 at 336 h [1] of 620 mg/kg, an ED50 [2] of 1.09 mg/kg and an ED50 [3] of 0.436 mg/kg.
